In assay [1] the test system is 3-deoxy-D-arabino-heptulosonate 7-phosphate synthase. Briefly: feedback inhibition of chloroplast DAHP synthase. Format: biochemical, higher plants. As to conditions: higher-plant chloroplasts. An excerpt:
Because L-arogenate regulates aromatic amino acid biosynthesis in the chloroplast by feedback inhibition exerted upon the initial enzyme of aromatic biosynthesis, it provides an excellent point of attack. Application of L-arogenate or an L-arogenate-type compound will cause a serious disturbance of the feedback inhibition mechanism of this crucial metabolic pathway.

Assay [2] relates to DAHP synthase isozymes of higher plants. In words: inhibition of DAHP synthase isozymes of higher plants. Format: biochemical. As to conditions: two separately compartmented isozymes. An excerpt: The early amino acid pathway circuit entails the feedback inhibition of 3-deoxy-D-arabinoheptulosonate 7-P (DAHP) synthase by chorismate. Thus, the DAHP synthase of Xanthomonas offers unique target of vulnerability in nature since an appropriate analog mimic of chorismate produces false feedback inhibition of DAHP synthase in Xanthomonas but not in the higher plant host. […] Step two of the claimed process has thus been completed.
The DAHP synthase of xanthomonads is also sensitive to inhibition by L-tryptophan. […] Thus, analog mimics of L-tryptophan attack a second site within the basic DAHP synthase target of Xanthomonas.

Assay [3] deals with a variety of bacteria, including N. gonorrhoeae. In words: energy drain / PEP depletion in bacteria after EPSP synthase block. Format: cell-based. From the text:
The enzymic target of N-(phosphonomethyl) glycine action is not present in mammalian systems, therefore, N-(phosphonomethyl) glycine is not toxic to the human host. Because N-(phosphonomethyl) glycine acts on an enzyme which is present in pathogenic bacteria but not in the human host, this compound could be used as an effective control agent for bacterial pathogens.

In assay [4] the test system is arogenate dehydrogenase. Briefly: substrate utilization by arogenate dehydrogenase enzymes. Format: biochemical. An excerpt:
(§1) Therefore, prephenyllactate is an appropriate prephenate analog for the control of phytopathogens.

Assay [5] relates to microbial prephenate dehydrogenase. Briefly: substrate utilization by microbial prephenate dehydrogenase. Format: biochemical.
Description: as §1

In assay [6] the test system is cyclohexadienyl dehydrogenase. In words: substrate utilization by cyclohexadienyl dehydrogenase. Format: biochemical.
Description: as §1

Regarding `N[C@@H](CC1(C(=O)O)C=CC(O)C=C1)C(=O)O` (stereo partly drawn) [L-arogenate], in assay [1], the “feedback inhibition of the initial enzyme of aromatic biosynthesis” value was “feedback inhibitor”.
As for `N[C@@H](Cc1c[nH]c2ccccc12)C(=O)O` [L-tryptophan], in assay [2], the “sensitivity of higher-plant DAHP synthase isozymes to inhibition” value is reported as “not affected”.
On to `O=C(O)CNCP(=O)(O)O` [N-(phosphonomethyl) glycine], for which, in assay [3] (even at microgram levels, shikimate-3-phosphate accumulates), the “drain upon intracellular supplies of PEP” value is on record as “produces a drain upon intracellular supplies of PEP”. Further, the “energy drain from depletion of PEP and ATP” value in assay [3] (variety of bacteria, including N. gonorrhoeae) is “severe energy drain”.
As to `C=C(O[C@@H]1C=C(C(=O)O)C=C[C@H]1O)C(=O)O` [chorismate], the “sensitivity of higher-plant DAHP synthase isozymes to inhibition” value in assay [2] is “neither sensitive to inhibition”.
For the compound `O=C(O)C(O)CC1(C(=O)O)C=CC(O)C=C1` (stereo not drawn) [prephenyllactate, β-(1-carboxyl-4-hydroxy-2,5-cyclohexadien-1-yl) lactic acid], the “utilization as substrate by arogenate dehydrogenase enzymes” value in assay [4] was “do not use prephenyllactate as a substrate”. Moreover, the “utilization as substrate by microbial prephenate dehydrogenase” value in assay [5] was “as a substrate quite well”. In addition, in assay [6], the “utilization as substrate by cyclohexadienyl dehydrogenase” value was “as a substrate quite well”.

The values are drawn from US5187071A, “Method for the selective control of weeds, pests, and microbes” (priority 1988, dated 1993).
